The nature of this assay: Agonist activity at RORgammat in mouse CD4+ T cells assessed as induction of Th17 cells differentiation by measuring increase in IL17 production measured after 4 days by intracellular staining based flow cytometry.

For orientation: EC50 means the concentration needed to bring the measured effect to its halfway point.

As for `CCCN(Cc1ccc(NC(=O)Cc2ccc(S(C)(=O)=O)cc2)cc1Cl)CC1CCCCC1`, the concentration for a half-maximal effect (EC50) came to 37 nM.

The values above are taken from BindingDB's records for doi:10.1016/j.ejmech.2021.113704 (Fudan University, 2021).
